Assay results from patent publication US7825245B2, “Substituted 4-anilinoquinazolines and their use in tumor treatment” (priority 2005, dated 2010).

How the values were obtained:
[1] = pH of the isolated product; assay type: physicochemical; conditions: isolated white powder
[2] = water solubility of the isolated product; assay type: physicochemical; conditions: isolated white powder

pH [1] | water solubility [2] | Structure (SMILES)
6.4 | water-soluble | C=CC1CCN(Sc2cc3c(N(C)c4ccc(CC)cc4)ncnc3c(C)c2OCCC)CC1 [Compound V-1]
6.4 | water-soluble | C=CC1CCN(C(=O)Oc2cc3c(N(C)c4ccc(CC)cc4)ncnc3c(C)c2OCC)CC1 [II-1]
6.4 | water-soluble | C#CC1CCN(Nc2c(OC)cc3ncnc(N(C)c4ccc(C)cc4)c3c2CC)CC1 [III-1]
